Experimental data as given in patent US4997835A, “Substituted 2-acylpyridine-α-(N)-hetarlyhydrazones and medicaments containing the same” (priority 1987, dated 1991).
Converted amounts (≈) assume the structure as drawn. Read-outs that look alike come from different tables or passages of the source.

Tests used:
[1] = system: Mycobacterium marinum SN 1254; experiment: Minimum inhibiting concentration, M. marinum SN1254; type: cell-based
[2] = system: Mycobacterium avium Patient Strain (Birk); experiment: Minimum inhibiting concentration, M. avium Patient Strain (Birk); type: cell-based; conditions: Mycobacterium avium, M. avium Patient str., read-out: Minimum inhibiting concentration
[3] = system: M. leprae; experiment: Propagation of M. leprae in mouse paws; type: in vivo; conditions: two months in feed; DDS 0.0001%, Rifampicin 0.001%, K-130 0.01%, Brodimoprim 0.01%, PH 22-26 0.05%
Experimental: The therapeutic action was determined as a reduction of the number of acid-resistant bacteria in the mouse paw according to C. C. Shepard, J. Experim. Met., 112, p. 445, 1960.
It is possible to detect the synergistic effect of the combinations, even under in vivo conditions.

[4] = system: Mycobacterium tuberculosis H 37 RV; experiment: Minimum inhibiting concentration, M. tuberculosis H37RV; type: cell-based; conditions: Mycobacterium tuberculosis; M. tub. H37RV
Experimental: The minimum inhibiting concentration of the commercially available and inventive substances given in Table 2 was determined according to the known standard process ("Methods for sensitivity testing of bacterial infectious germs", DIN 58940, part 5).
The determination was carried out on the following bacterial cultures:
2. Mycobacterium tuberculosis H 37 RV, FIB 2-85 JS
For culturing the bacterial cultures use was made of nutrient substrates according to Gottsacker and Lowenstein Jensen and culture media according to Lockemann or Dubos-Davis (cf. "Detection processes for mycobacteria from test material, III, culture medium formulations for culturing tuberculosis bacteria", 1978, Publisher: Deutsches Zentralkomitee zur Bekampfung der Tuberculose, Poppenhusenstrasse 14c, 2000 Hamburg 60).
In each case 5×10^-3 to 5×10^-5 mg, based on the wet weight, of the mycobacterial strains were incubated in 2 ml of culture fluid (Lockemann +0.5 wt/vol. % bovine serum albumen fraction 5) at 31° C. with a graded concentration of the particular inhibitor (dilution series). The culture tubes were read off after 8 to 15 days, as a function of the bacterial strain.
The MIC is the inhibitor concentration in μMol/l at which no propagation of the sewn cells is observed.

[5] = system: Mycobacterium lufu; experiment: Minimum inhibiting concentration, M. lufu L 209; type: cell-based; conditions: Mycobacterium lufu
[6] = system: M. leprae; experiment: In vitro propagation of M. leprae, thymidine incorporation; type: cell-based; conditions: Mycobacterium leprae, read-out: % Reduction Thymidine incorporation; for inhibition of growth at 10000 µg/mL: 10 mg/ml
Experimental: The inhibiting action was determined as a reaction of the thymidine absorption and the ATP content in M. Leprae suspensions, in the manner described by A. M. Dhople, Med. Sci. Res., 15, p.

[7] = system: Mycobacterium smegmatis ATCC 607; experiment: Minimum inhibiting concentration, M. smegmatis ATCC 607; type: cell-based; conditions: Mycolicibacterium smegmatis
[8] = system: Sierra Leone D-6 (parasitic malaria strain); experiment: Growth of malaria strain Sierra Leone D-6; type: cell-based; conditions: for IC50: read-out: I50; for IC90: read-out: I90
Excerpt: (§1) Determination of the semimaximum inhibiting concentration (I50) of typical representatives of the inventive compounds for the growth of parasitic malaria strains:
(§2) The determination took place according to the standard process (cf. WHO determination process).
(§3) The process according to Example 35 was repeated with the difference that the semimaximum inhibiting concentration of combinations of the inventive compound PH 22 with (2), (3) inhibitors of dihydrofolic acid reductase, (4) inhibitors of folate synthase and dihydrofolic acid reductase and (5), (6) inhibitors of DNA-synthesis were determined.

[9] = system: Indochina W-2 (parasitic malaria strain); experiment: Growth of malaria strain Indochina W-2; type: cell-based; conditions: for IC50: read-out: I50; for IC90: read-out: I90
Excerpt: as §1, §2, §3

[10] = M. marin. SN1254, read-out: Minimum inhibiting concentration
[11] = ATCC607, M. smegm. ATCC 607, read-out: Minimum inhibiting concentration

Row | Compound | MIC [1, 10] | MIC [4] | MIC [5] | MIC [7, 11] | further results
1 | COc1cc(Cc2cnc(N)nc2N)cc(OC)c1Br [Brodimoprim, brodimoprim, reference compound] | 18 µM (≈ 6.11 µg/mL) | 94 µM (≈ 31.9 µg/mL) | 80 µM (≈ 27.1 µg/mL) | – | MIC ([2]; values marked *): > 100 µg/mL; % Inhibition of propagation of M. leprae in mouse paws [3]: 3%
2 | Nc1ccc(S(=O)(=O)c2ccc(N)cc2)cc1 [DDS, 4,4'-diaminodiphenylsulphone] | – | – | – | – | inhibition of growth at 5000 µg/mL ([6]; 5 mg/ml): 0%; inhibition of growth at 10000 µg/mL [6]: 5%; % Inhibition of propagation of M. leprae in mouse paws [3]: 14%
3 | COc1cc(Cc2cnc(N)nc2N)cc(OC)c1OCCCNc1ccc(S(=O)(=O)c2ccc(N)cc2)cc1 [K-130, 2,4-diamino-5-{4-[3-(4'-aminophenyl-4-sulphonylphenylamino)-propoxy]-3,5-dimethoxybenzyl}-pyrimidine] | – | – | – | – | inhibition of growth at 10000 µg/mL [6]: 0%; inhibition of growth at 20000 µg/mL ([6]; 20 mg/ml): 65%; % Inhibition of propagation of M. leprae in mouse paws [3]: 56%
4 | C(=NNc1nncc2ccccc12)c1ccccn1 [PH 22-1, pyridine-2-aldehyde-1'-phthalazinylhydrazone] | – | 49 µM (≈ 12.2 µg/mL) | 12.1 µM (≈ 3.02 µg/mL) | 49 µM (≈ 12.2 µg/mL) | –
5 | CC(=NNc1nncc2ccccc12)c1ccccn1 [PH 22-3, 2-acetylpyridine-1'-phthalazinylhydrazone] | 22 µM (≈ 5.79 µg/mL) | 31 µM (≈ 8.16 µg/mL) | 6.6 µM (≈ 1.74 µg/mL) | 44 µM (≈ 11.6 µg/mL) | MIC [2]: 53 µM
6 | CCc1ccc(C=NNc2nncc3ccccc23)nc1 [PH 22-5, 5-ethylpyridine-2-aldehyde-1'-phthalazinylhydrazone] | 10.4 µM (≈ 2.88 µg/mL) | 16.6 µM (≈ 4.6 µg/mL) | 14.5 µM (≈ 4.02 µg/mL) | 67 µM (≈ 18.6 µg/mL) | –
7 | C(=NNc1nncc2ccccc12)c1ccc(OCc2ccccc2)cn1 [PH 22-6, 5-benzyloxypyridine-2-aldehyde-1'-phthalazinylhydrazone] | 7 µM (≈ 2.49 µg/mL) | 8.5 µM (≈ 3.02 µg/mL) | 5.6 µM (≈ 1.99 µg/mL) | 40 µM (≈ 14.2 µg/mL) | MIC [2]: 7 µM
8 | Cc1ccnc(C=NNc2nncc3ccccc23)c1 [PH 22-8, 4-methyl-pyridine-2-aldehyde-1'-phthalazinylhydrazone] | 22 µM (≈ 5.79 µg/mL) | 18 µM (≈ 4.74 µg/mL) | 31 µM (≈ 8.16 µg/mL) | 44 µM (≈ 11.6 µg/mL) | –
9 | Cc1cccc(C=NNc2ccccn2)n1 [PH 22-10, 6-methyl pyridine-2-aldehyde-pyridylhydrazone] | – | 47 µM (≈ 9.98 µg/mL) | 8.3 µM (≈ 1.76 µg/mL) | 33 µM (≈ 7 µg/mL) | –
10 | Clc1cccc(C=NNc2ccccn2)n1 [PH 22-11, 6-chloropyridine-2-aldehyde-2'-pyridylhydrazone] | – | 86 µM (≈ 20 µg/mL) | 43 µM (≈ 10 µg/mL) | 56 µM (≈ 13 µg/mL) | IC50 [8]: 13.1 µM; IC90 [8]: 25.7 µM; IC50 [9]: 8.9 µM; IC90 [9]: 23 µM
11 | CCc1ccc(C=NNc2ccccn2)nc1 [PH 22-13, 5-ethyl-pyridine-2-aldehyde-2'-pyridylhydrazone] | 44 µM (≈ 9.96 µg/mL) | 22 µM (≈ 4.98 µg/mL) | 53 µM (≈ 12 µg/mL) | 22 µM (≈ 4.98 µg/mL) | –
12 | Cc1ccc(C=NNc2ccc3ccccc3n2)nc1 [PH 22-14, 5-methyl-pyridine-2-aldehyde-2'-quinolylhydrazone] | 5.7 µM (≈ 1.5 µg/mL) | 1.2 µM (≈ 0.315 µg/mL) | 3.8 µM (≈ 0.997 µg/mL) | 9.5 µM (≈ 2.49 µg/mL) | –
13 | Cc1ccc(C=NNc2nncc3ccccc23)nc1 [PH 22-16, 5-methyl-pyridine-2-aldehyde-1'-phthalazinylhydrazone] | 76 µM (≈ 20 µg/mL) | 1.4 µM (≈ 0.369 µg/mL) | 4.8 µM (≈ 1.26 µg/mL) | 5.7 µM (≈ 1.5 µg/mL) | –
14 | CC(=O)Nc1ccnc(C=NNc2ccccn2)c1 [PH 22-17, 4-acetylamino-pyridine-2-aldehyde-2'-pyridylhydrazone] | – | > 125 µM | 94 µM (≈ 24 µg/mL) | – | MIC ([1]; SN1254, read-out: Minimum inhibiting concentration): > 125 µM; IC50 [8]: 0.6 µM; IC90 [8]: 1.1 µM; MIC ([7]; ATCC607, read-out: Minimum inhibiting concentration): > 125 µM; IC50 [9]: 0.5 µM; IC90 [9]: 2.3 µM
15 | CC(=O)Nc1ccnc(C=NNc2nncc3ccccc23)c1 [PH 22-18, 4-acetylaminopyridine-2-aldehyde-1'-phthalazinylhydrazone] | 92 µM (≈ 28.2 µg/mL) | 46 µM (≈ 14.1 µg/mL) | 22.9 µM (≈ 7.01 µg/mL) | 65 µM (≈ 19.9 µg/mL) | –
16 | CC(=O)Nc1ccnc(C=NNc2ccc3ccccc3n2)c1 [PH 22-19, 4-acetylaminopyridine-2-aldehyde-2'-quinolylhydrazone] | 11.5 µM (≈ 3.51 µg/mL) | 11.5 µM (≈ 3.51 µg/mL) | 32.9 µM (≈ 10 µg/mL) | 9.8 µM (≈ 2.99 µg/mL) | –
17 | CC(=O)Nc1ccnc(C(C)=NNc2nncc3ccccc23)c1 [PH 22-20, 4-acetylamino-2-acetylpyridine-1'-phthalazinylhydrazine] | 88 µM (≈ 28.2 µg/mL) | 10.9 µM (≈ 3.49 µg/mL) | 12.5 µM (≈ 4 µg/mL) | 15.6 µM (≈ 5 µg/mL) | –
18 | c1ccc(C(=NNc2nncc3ccccc23)c2ccccn2)cc1 [PH 22-22, 2-benzoylpyridine-1'-phthalazinylhydrazone] | 10.8 µM (≈ 3.51 µg/mL) | 18.5 µM (≈ 6.02 µg/mL) | 2.3 µM (≈ 0.748 µg/mL) | 12.3 µM (≈ 4 µg/mL) | MIC [2]: 86 µM
19 | Nc1ccnc(C=NNc2nncc3ccccc23)c1 [PH 22-23, 4-aminopyridine-2-aldehyde-1'-phthalazinylhydrazine] | 38 µM (≈ 10 µg/mL) | 13.3 µM (≈ 3.52 µg/mL) | 26.5 µM (≈ 7 µg/mL) | 13.3 µM (≈ 3.52 µg/mL) | –
20 | CC(=NNc1nncc2ccccc12)c1cc(N)ccn1 [PH 22-24, 2-acetyl-4-aminopyridine-1'-phthalazinylhydrazine] | 18 µM (≈ 5.01 µg/mL) | 4.5 µM (≈ 1.25 µg/mL) | 2.2 µM (≈ 0.612 µg/mL) | 4.5 µM (≈ 1.25 µg/mL) | –
21 | C(=NNc1nccc2ccccc12)c1ccccn1 [PH 22-27, pyridine-2-aldehyde-1'-isoquinolylhydrazone] | 16.1 µM (≈ 4 µg/mL) | 8.1 µM (≈ 2.01 µg/mL) | 6 µM (≈ 1.49 µg/mL) | 12.1 µM (≈ 3 µg/mL) | –
22 | CC(O)CN(C)c1ccc(NN=Cc2ccccn2)nn1 (centres unmarked) [PH 22-28, pyridine-2-aldehyde-6'-(N-methyl-N-2"-hydroxypropyl)-amino-3'-pyridazinylhydrazone] | 70 µM (≈ 20 µg/mL) | 140 µM (≈ 40.1 µg/mL) | 35 µM (≈ 10 µg/mL) | – | –
23 | Clc1cccc(NN=Cc2ccccn2)n1 [PH 22-29, pyridine-2-aldehyde-6'-chloro-2'-pyridylhydrazone] | 6.5 µM (≈ 1.51 µg/mL) | 1.6 µM (≈ 0.372 µg/mL) | 3.2 µM (≈ 0.745 µg/mL) | – | MIC [2]: 60 µM
24 | Clc1ccc(NN=Cc2ccccn2)nc1 [PH 22-30, pyridine-2-aldehyde-5'-chloro-2'-pyridylhydrazone] | 5.4 µM (≈ 1.26 µg/mL) | 1.3 µM (≈ 0.302 µg/mL) | 2.7 µM (≈ 0.628 µg/mL) | – | MIC [2]: 13 µM
25 | Cc1cccc(NN=Cc2ccccn2)n1 [PH 22-31, pyridine-2-aldehyde-2'-(6'-methyl)-pyridylhydrazone] | 8.3 µM (≈ 1.76 µg/mL) | 1.8 µM (≈ 0.382 µg/mL) | 3.5 µM (≈ 0.743 µg/mL) | – | MIC [2]: 57 µM
26 | CC(=NNc1cc(Cl)ncn1)c1ccccn1 [PH 22-32] | 28.3 µM (≈ 7.01 µg/mL) | 6.1 µM (≈ 1.51 µg/mL) | 1.3 µM (≈ 0.322 µg/mL) | – | –
27 | CCc1ccc(C=NNc2cc(OC)ncn2)nc1 [PH 22-33, 5-ethylpyridine-2-aldehyde-6'-methoxy-4'-pyrimidylhydrazone] | 4.9 µM (≈ 1.26 µg/mL) | 2.4 µM (≈ 0.618 µg/mL) | 1.5 µM (≈ 0.386 µg/mL) | – | –
28 | CC(=NNc1ncnc2ccccc12)c1ccccn1 [PH 22-34, 2-acetylpyridine-4'-quinazolylhydrazone] | 64 µM (≈ 16.9 µg/mL) | 12 µM (≈ 3.16 µg/mL) | < 1 µM | – | –
29 | CN(N=Cc1ccccn1)c1cc(Cl)ncn1 [PH 22-36, pyridine-2-aldehyde-6'-chloro-4'-pyrimidyl-(N1-methyl)-hydrazone] | 119 µM (≈ 29.5 µg/mL) | 136 µM (≈ 33.7 µg/mL) | 5.3 µM (≈ 1.31 µg/mL) | – | –
30 | C(=NNc1ccccn1)c1nccc2ccccc12 [PH 22-37, isoquinoline-1-aldehyde-2'-pyridyl hydrazone] | 6 µM (≈ 1.49 µg/mL) | 3 µM (≈ 0.745 µg/mL) | 12.1 µM (≈ 3 µg/mL) | 6 µM (≈ 1.49 µg/mL) | –
